This note sets out measurements from paper PMC6468293, “Double autoinhibition mechanism of signal transduction ATPases with numerous domains (STAND) with a tetratricopeptide repeat sensor” (Nucleic Acids Research, 2019).

Changes are numbered by the printed parent chain. Names may count otherwise.

Series [1] deals with T1, PH0952ΔN (Pyrococcus horikoshii, UniProt O58663).
T1 construct: gene PH0952; NBD 102-262, HD 263-316, WHD 317-393, arm 394-496, TPR sensor 497-748; from E. coli Rosetta (DE3), intein tag cleaved; monomeric resting form
T1 sequence (O58663 entry or part of it, stated change not applied): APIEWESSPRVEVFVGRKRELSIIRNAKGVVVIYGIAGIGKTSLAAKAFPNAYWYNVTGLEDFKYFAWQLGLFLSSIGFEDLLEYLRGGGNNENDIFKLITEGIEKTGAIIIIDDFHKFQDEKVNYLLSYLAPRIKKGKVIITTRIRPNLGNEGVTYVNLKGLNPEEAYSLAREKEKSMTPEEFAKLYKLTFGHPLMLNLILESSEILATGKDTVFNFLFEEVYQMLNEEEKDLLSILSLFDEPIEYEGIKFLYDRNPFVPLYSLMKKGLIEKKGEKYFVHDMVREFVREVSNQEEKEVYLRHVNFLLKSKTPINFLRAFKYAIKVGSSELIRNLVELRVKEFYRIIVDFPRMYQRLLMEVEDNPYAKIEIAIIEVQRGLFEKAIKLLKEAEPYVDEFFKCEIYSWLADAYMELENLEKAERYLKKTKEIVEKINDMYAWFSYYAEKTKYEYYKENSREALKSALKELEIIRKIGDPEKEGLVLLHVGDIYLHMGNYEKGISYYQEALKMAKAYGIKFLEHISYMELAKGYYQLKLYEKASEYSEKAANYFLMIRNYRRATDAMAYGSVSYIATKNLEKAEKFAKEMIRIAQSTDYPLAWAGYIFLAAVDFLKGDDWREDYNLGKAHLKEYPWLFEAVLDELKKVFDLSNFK
In words: X-ray crystal structure. Particulars: 3.4 Å; ADP present in purification buffer; nucleotide-binding site of the NOD.

Series [2] addresses T2, MalT (Escherichia coli, UniProt P06993, R171E).
T2 construct: full-length, His6-tagged (pOM206, pET24a(+) derivative), purified from E. coli BL21 ΔmalT
In words: limited proteolysis (proteinase K). The class given is biochemical. The settings on record: 22 mM maltotriose; 0.44 mM ATP or ADP; pH 8.0, 25 °C.

For series [3], the target named is T3, MalT (Escherichia coli, UniProt P06993, M96T/R171E).
T3 construct: full-length, His6-tagged (pOM206, pET24a(+) derivative), purified from E. coli BL21 ΔmalT
T3 sequence (P06993 whole entry M96T/R171E): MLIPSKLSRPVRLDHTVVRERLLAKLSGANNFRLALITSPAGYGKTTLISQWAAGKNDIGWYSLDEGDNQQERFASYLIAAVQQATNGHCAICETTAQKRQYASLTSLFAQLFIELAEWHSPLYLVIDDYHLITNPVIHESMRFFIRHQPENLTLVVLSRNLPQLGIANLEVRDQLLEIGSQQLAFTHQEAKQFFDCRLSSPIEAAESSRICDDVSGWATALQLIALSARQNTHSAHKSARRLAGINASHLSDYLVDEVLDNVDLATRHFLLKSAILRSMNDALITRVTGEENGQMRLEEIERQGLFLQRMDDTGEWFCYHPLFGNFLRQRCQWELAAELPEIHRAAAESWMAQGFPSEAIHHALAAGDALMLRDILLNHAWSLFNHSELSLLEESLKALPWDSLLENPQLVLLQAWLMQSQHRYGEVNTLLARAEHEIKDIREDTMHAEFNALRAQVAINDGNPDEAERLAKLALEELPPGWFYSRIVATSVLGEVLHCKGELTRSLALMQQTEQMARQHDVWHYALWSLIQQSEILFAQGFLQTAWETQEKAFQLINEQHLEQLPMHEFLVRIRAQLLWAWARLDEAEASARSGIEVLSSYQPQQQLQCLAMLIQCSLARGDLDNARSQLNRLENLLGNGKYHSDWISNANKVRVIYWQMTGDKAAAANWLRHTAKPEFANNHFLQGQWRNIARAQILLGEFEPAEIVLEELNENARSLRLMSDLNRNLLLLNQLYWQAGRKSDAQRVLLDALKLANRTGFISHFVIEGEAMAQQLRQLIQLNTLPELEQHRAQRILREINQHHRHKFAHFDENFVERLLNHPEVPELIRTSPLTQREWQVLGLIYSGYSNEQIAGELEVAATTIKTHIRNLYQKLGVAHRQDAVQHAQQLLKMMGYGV
In words: limited proteolysis (proteinase K). Format: biochemical. The settings on record: 22 mM maltotriose; 0.44 mM ATP or ADP; pH 8.0, 25 °C.

Series [4] addresses T4, MalT (Escherichia coli, UniProt P06993, M96C).
T4 construct: full-length, His6-tagged (pOM206, pET24a(+) derivative), purified from E. coli BL21 ΔmalT
In words: analytical size-exclusion chromatography (multimerization). Format: biochemical. The settings on record: reducing conditions.

The target of series [5] is T5, MalT (Escherichia coli, UniProt P06993, H562C).
T5 construct: full-length, His6-tagged (pOM206, pET24a(+) derivative), purified from E. coli BL21 ΔmalT
T5 sequence (P06993 whole entry H562C): as the sequence (P06993 whole entry M96T/R171E) above, with T96M, E171R, H562C counted along it
The series is described as above. The settings on record: reducing conditions. The class given is biochemical.

Series [6] concerns the target T6, MalT (Escherichia coli, UniProt P06993).
T6 construct: full-length, His6-tagged (pOM206, pET24a(+) derivative), purified from E. coli BL21 ΔmalT
In words: analytical size-exclusion chromatography (multimerization) and limited proteolysis. Format: biochemical. The settings on record: with ATP; inducer; pH 8.0. (In gel filtration, larger molecules generally elute earlier.)

Series [7] concerns the molecule itself. In words: SEC; analytical Superdex 200 PC3.2/30, room temperature; reducing conditions; with the inducer maltotriose (Supplementary Figure S9).
Series [8] deals with the molecule itself. In words: SEC; analytical Superdex 200, room temperature; Tris-HCl 50 mM pH 8.0, 10% sucrose, 0.033 M K3 citrate, 10 mM Mg acetate, 0.1 mM EDTA, 1 mM DTT, 0.1 mM ADP; no maltotriose; high protein concentration (54 μM).

T4 sequence (P06993 whole entry M96C): as the sequence (P06993 whole entry M96T/R171E) above, with T96C, E171R counted along it
T2 sequence (P06993 whole entry R171E): as the sequence (P06993 whole entry M96T/R171E) above, with T96M counted along it

Regarding `Nc1ncnc2c1ncn2[C@@H]1O[C@H](COP(=O)(O)OP(=O)(O)O)[C@@H](O)[C@H]1O` [ADP], the X-ray crystal structure result in series [1] is on record as “a ligand was clearly visible in the experimental electron density map”. In the case of `OC[C@H]1O[C@H](O[C@H]2[C@H](O)[C@@H](O)[C@@H](O[C@H]3[C@H](O)[C@@H](O)C(O)O[C@@H]3CO)O[C@@H]2CO)[C@H](O)[C@@H](O)[C@@H]1O` (some centres unmarked) [maltotriose], the “limited proteolysis (proteinase K)” value in series [2] and in series [3] was “underwent the same maltotriose-induced conformational changes as MalT” in each case. For the same molecule, the “analytical size-exclusion chromatography (multimerization)” value is listed as “the four proteins were monomeric in the absence of the inducer, maltotriose” in series [4] and “the four proteins were monomeric in the absence of the inducer, maltotriose” in series [5]. Besides, the “analytical size-exclusion chromatography (multimerization) and limited proteolys” value in series [6] is recorded as “responded to its presence by multimerizing to the same extent”.

B1: His6-tagged MalT (Escherichia coli maltose system regulator), wild type (natural protein, E. coli, UniProt P06993 1-901, looked up)
chain: MLIPSKLSRPVRLDHTVVRERLLAKLSGANNFRLALITSPAGYGKTTLISQWAAGKNDIGWYSLDEGDNQQERFASYLIAAVQQATNGHCAICETMAQKRQYASLTSLFAQLFIELAEWHSPLYLVIDDYHLITNPVIHESMRFFIRHQPENLTLVVLSRNLPQLGIANLRVRDQLLEIGSQQLAFTHQEAKQFFDCRLSSPIEAAESSRICDDVSGWATALQLIALSARQNTHSAHKSARRLAGINASHLSDYLVDEVLDNVDLATRHFLLKSAILRSMNDALITRVTGEENGQMRLEEIERQGLFLQRMDDTGEWFCYHPLFGNFLRQRCQWELAAELPEIHRAAAESWMAQGFPSEAIHHALAAGDALMLRDILLNHAWSLFNHSELSLLEESLKALPWDSLLENPQLVLLQAWLMQSQHRYGEVNTLLARAEHEIKDIREDTMHAEFNALRAQVAINDGNPDEAERLAKLALEELPPGWFYSRIVATSVLGEVLHCKGELTRSLALMQQTEQMARQHDVWHYALWSLIQQSEILFAQGFLQTAWETQEKAFQLINEQHLEQLPMHEFLVRIRAQLLWAWARLDEAEASARSGIEVLSSYQPQQQLQCLAMLIQCSLARGDLDNARSQLNRLENLLGNGKYHSDWISNANKVRVIYWQMTGDKAAAANWLRHTAKPEFANNHFLQGQWRNIARAQILLGEFEPAEIVLEELNENARSLRLMSDLNRNLLLLNQLYWQAGRKSDAQRVLLDALKLANRTGFISHFVIEGEAMAQQLRQLIQLNTLPELEQHRAQRILREINQHHRHKFAHFDENFVERLLNHPEVPELIRTSPLTQREWQVLGLIYSGYSNEQIAGELEVAATTIKTHIRNLYQKLGVAHRQDAVQHAQQLLKMMGYGV
notes: MalT, E. coli, His-tagged version encoded by pOM206 (pET24a(+) derivative); Purified in two buffers (with ATP/KCl; or K3 citrate without nucleotide) to serve as control for the variants; Details of the plasmid are in the Supplementary Materials and Methods; also called wt MalT; wild-type MalT; source: E. coli pop8012 (a BL21 ΔmalT strain) with pOM206, purified (nickel-agarose chromatography, …)
For B1, in series [7], the binding result is reported as “binds”.

B2: His6-tagged MalT^M96T (natural protein, E. coli, UniProt P06993 1-901, looked up)
chain: B1 chain with M96T
notes: MalT, E. coli, His-tagged, pOM206 derivative; About 20% aggregated after purification without nucleotide; concentration was corrected for this; also called M96T variant
As to B2, in series [8], the binding result was “binds”.

B3: His6-tagged MalT^M96C,H562C (natural protein, E. coli, UniProt P06993 1-901, looked up)
chain: B1 chain with M96C, H562C
notes: MalT, E. coli, His-tagged, pOM206 derivative; source: E. coli pop8012 (a BL21 ΔmalT strain) with a pOM206 derivative, purified (nickel-agarose chromatography, Superdex 200)
Regarding B3, the binding result in series [7] is recorded as “binds”.

B4: His6-tagged MalT^M96C (natural protein, E. coli, UniProt P06993 1-901, looked up)
chain: B1 chain with M96C
notes: as for B3
For B4, in series [7], the binding result is “binds”.

B5: His6-tagged MalT^H562C (natural protein, E. coli, UniProt P06993 1-901, looked up)
chain: B1 chain with H562C
notes: as for B3
Turning to B5, the binding result in series [7] is on record as “binds”.
